Reference: patent publication US8492109B2 (priority 2009, dated 2013)

Assays:
[1] = system: neuronal cell lines M17, Neuro2a and non-neuronal cell lines HEK293, HIT-T15; format: cell-based
[2] = system: primary rat granule cerebellar neurons (RGCN)
M17 cells [3] = format: cell-based
HIT-T15 cells [4] = format: cell-based, human
M17 cells [5] = system: M17 cells
HIT-T15 cells [6] = format: cell-based, human; remark: listed apart in the source

## CO/C1=C\C(C)=C\[C@@H](C)[C@@H](O)[C@@H](C)C/C(C)=C/C=C/[C@H](OC)[C@@H]([C@@H](C)[C@@H](O)[C@H](C)[C@@]2(O)C[C@@H](O)[C@H](C)[C@@H](C(C)C)O2)OC1=O [Bafilomycin, Bafilomycin A1]
[1]
  inhibition of BoNT intoxication: clearly inhibited
  sensitivity of functional transduction of BoNT Lc to bafilomycin: fully sensitive
[2]
  SNAP25 cleavage in bafilomycin-treated cells: a small amount of SNAP25 cleavage was observed
  cytotoxicity (visual): Some cytoxicity
  inhibition of BoNT/A intoxication (SNAP25 cleavage): completely inhibit
M17 cells [3]
  effect on efficiency of plasmid DNA transfection mediated by FuGene (fluorescent protein expression): no inhibitory effect
HEK293 cells
  bafilomycin cytotoxicity: particularly susceptible to bafilomycin toxicity
HIT-T15 cells [4]
  inhibition of functional internalization of recombinant BoNT/A Lc: inhibited functional internalization
M17 cells [5]
  inhibition of SNAP25 cleavage by BoNT/A holotoxin: inhibited SNAP25 cleavage
HIT-T15 cells [6]
  effect on efficiency of plasmid DNA transfection mediated by FuGene (fluorescent protein expression): no inhibitory effect
